Results: patent US11345694B2, “Antibacterial compounds” (DISCUVA LTD., priority 2017, dated 2022)
In brackets after ≈: the same amount, converted by molar mass.

How the values were obtained:
[1] = test system: E. coli NCTC 13441 (UPEC); experiment: MIC broth microdilution; assay type: cell-based, Escherichia coli; settings: Escherichia coli, NCTC13441
Procedure: (§1) Minimum Inhibitory Concentrations (MICs) versus planktonic bacteria are determined by the broth microdilution procedure according to the guidelines of the Clinical and Laboratory Standards Institute (Clinical and Laboratory Standards Institute. Methods for Dilution Antimicrobial Susceptibility Tests for Bacteria That Grow Aerobically; Approved Standard-tenth Edition. CLSI document M07-A10, 2015). The broth dilution method involves a two-fold serial dilution of compounds in 96-well microtitre plates, giving a final concentration range of 0.39-200 μM and a maximum final concentration of 2% DMSO. The bacterial strains tested include Escherichia coli K12 (EC), E. coli NCTC 13441 (UPEC), Staphylococcus aureus ATCC 35556 (SA), Acinetobacter baumannii ATCC 17978 (AB), Pseudomonas aeruginosa ATCC 33359 (PA), Enterobacter cloacae DSM 30054 (Ed), Serratia marcescens SL1344 (Sm), Salmonella typhimurium XNAA5 (St), Klebsiella pneumoniae ATCC 10031 (KP2), K. pneumoniae NCTC 13438 (KP1), K. pneumoniae ATCC 700603 (KP3), Klebsiella pneumoniae ATCC 51504 (KP4), K. pneumoniae H154680676 (KP5), K. pneumoniae H154020667 (KP6), K. pneumoniae H154640784 (KP7), K. pneumoniae H154600588 (KP8), K. pneumoniae H154300688 (KP9), K. pneumoniae H151440671 (KP10). Strains are grown in cation-adjusted Müller-Hinton broth or on Luria Bertoni agar at 37° C. in an ambient atmosphere. The MIC is determined as the lowest concentration of compound that inhibits growth following a 20-24 hour incubation period.

[2] = test system: Acinetobacter baumannii ATCC 17978 (AB); experiment: MIC broth microdilution; assay type: cell-based; settings: ATCC17978
Procedure: as §1

[3] = test system: Escherichia coli K12 (EC); experiment: MIC broth microdilution; assay type: cell-based
Procedure: as §1

[4] = test system: Klebsiella pneumoniae ATCC 10031 (KP2); experiment: MIC broth microdilution; assay type: cell-based; settings: ATCC10031
Procedure: as §1

[5] = test system: Pseudomonas aeruginosa ATCC 33359 (PA); experiment: MIC broth microdilution; assay type: cell-based; settings: ATCC33359
Procedure: as §1

[6] = test system: Staphylococcus aureus ATCC 35556 (SA); experiment: MIC broth microdilution; assay type: cell-based; settings: ATCC35556
Procedure: as §1

[7] = test system: K. pneumoniae NCTC 13438 (KP1); experiment: MIC broth microdilution; assay type: cell-based, Klebsiella pneumoniae; settings: Klebsiella pneumoniae, NCTC13438
Procedure: as §1

[8] = test system: human hepatocarcinoma cell line ATCC HB-8065 (HepG2); experiment: Human cell viability (CellTiter-Glo); assay type: cell-based; settings: Homo sapiens; HepG2 cells, 24 h incubation, CellTiter-Glo luminescence, 0.2-100 μM; read-out: IC50 values against the HepG2 cell line
Procedure: Compounds are assessed for potential non-specific cytotoxic effects against the human hepatocarcinoma cell line ATCC HB-8065 (HepG2). HepG2 cells are seeded at 20,000 cells/well in 96-well microtitre plates in minimal essential medium (MEM) supplemented with a final concentration of 10% FBS. After 24 h, compound dilutions are prepared in MEM supplemented with a final concentration of 1% FBS, and added to the cells. Compounds are tested in two-fold serial dilutions over a final concentration range of 0.2-100 μM in a final DMSO concentration of 1% vol/vol. Thioridazine is used as a positive control. Cells are incubated with compound at 37° C. and 5% CO2 for a further 24 h, after which time the CellTiter-Glo reagent (Promega) is added. Luminescence is measured on a Perkin Elmer Envision plate reader. Data are analysed using a 4 parameter logistic regression to determine the concentration of compound that inhibits cell viability by fifty percent (IC50).

Compound | MIC [1] | MIC [2] | MIC [3] | MIC [4] | MIC [5] | MIC [6] | MIC [7] | IC50 [8]
Cc1cc(-c2[nH]c(N)nc2-c2ccc3c(c2)N(C)CCO3)ccn1 [Example 44, 4-(4-Methyl-3,4-dihydro-2H-benzo[b][1,4]oxazin-6-yl)-5-(2-methylpyridin-4-yl)-1H-imidazol-2-amine] | 1 to 10 µM (≈ 0.321 to 3.21 µg/mL) | > 100 µM | 1 to 10 µM (≈ 0.321 to 3.21 µg/mL) | ≤ 1 µM | > 100 µM | > 100 µM | 1 to 10 µM (≈ 0.321 to 3.21 µg/mL) | > 100 µM
Nc1nc(-c2ccc3c(c2)NCCO3)c(-c2ccnc(C(F)(F)F)c2)[nH]1 [Example 46, 4-(3,4-Dihydro-2H-benzo[b][1,4]oxazin-6-yl)-5-(2-(trifluoromethyl)pyridin-4-yl)-1H-imidazol-2-amine] | 1 to 10 µM (≈ 0.361 to 3.61 µg/mL) | > 100 µM | 1 to 10 µM (≈ 0.361 to 3.61 µg/mL) | ≤ 1 µM | > 100 µM | > 100 µM | 10 to 100 µM (≈ 3.61 to 36.1 µg/mL) | > 100 µM
Nc1nc(-c2ccc3c(c2)NCCO3)c(-c2ccnc(F)c2)[nH]1 [Example 47, 4-(3,4-Dihydro-2H-benzo[b][1,4]oxazin-6-yl)-5-(2-fluoropyridin-4-yl)-1H-imidazol-2-amine] | 1 to 10 µM (≈ 0.311 to 3.11 µg/mL) | > 100 µM | 1 to 10 µM (≈ 0.311 to 3.11 µg/mL) | ≤ 1 µM | > 100 µM | > 100 µM | 10 to 100 µM (≈ 3.11 to 31.1 µg/mL) | > 100 µM
Cc1cc(-c2[nH]c(N)nc2-c2ccc3c(c2)NCCCO3)ccn1 [Example 48, 5-(2-Methylpyridin-4-yl)-4-(2,3,4,5-tetrahydrobenzo[b][1,4]oxazepin-7-yl)-1H-imidazol-2-amine] | 1 to 10 µM (≈ 0.321 to 3.21 µg/mL) | > 100 µM | 1 to 10 µM (≈ 0.321 to 3.21 µg/mL) | ≤ 1 µM | > 100 µM | > 100 µM | 10 to 100 µM (≈ 3.21 to 32.1 µg/mL) | > 100 µM
Cc1cc(-c2[nH]c(N)nc2-c2cc(F)c3c(c2)NC(=O)CO3)ccn1 [Example 50, 6-(2-Amino-5-(2-methylpyridin-4-yl)-1H-imidazol-4-yl)-8-fluoro-2H-benzo[b][1,4]oxazin-3(4H)-one] | 1 to 10 µM (≈ 0.339 to 3.39 µg/mL) | > 100 µM | 1 to 10 µM (≈ 0.339 to 3.39 µg/mL) | ≤ 1 µM | > 100 µM | > 100 µM | 10 to 100 µM (≈ 3.39 to 33.9 µg/mL) | > 100 µM
Cc1cc(-c2[nH]c(N)nc2-c2ccc3c(c2)NC(=O)CO3)ccn1 [Example 51, 6-(2-Amino-5-(2-methylpyridin-4-yl)-1H-imidazol-4-yl)-2H-benzo[b][1,4]oxazin-3(4H)-one] | 1 to 10 µM (≈ 0.321 to 3.21 µg/mL) | > 100 µM | 1 to 10 µM (≈ 0.321 to 3.21 µg/mL) | ≤ 1 µM | > 100 µM | > 100 µM | 10 to 100 µM (≈ 3.21 to 32.1 µg/mL) | > 100 µM
Cc1cc(-c2[nH]c(N)nc2-c2ccc3c(c2)NCC(=O)O3)ccn1 [Example 53, 6-(2-Amino-5-(2-methylpyridin-4-yl)-1H-imidazol-4-yl)-3,4-dihydro-2H-benzo[b][1,4]oxazin-2-one] | 1 to 10 µM (≈ 0.321 to 3.21 µg/mL) | > 100 µM | 1 to 10 µM (≈ 0.321 to 3.21 µg/mL) | ≤ 1 µM | > 100 µM | > 100 µM | 10 to 100 µM (≈ 3.21 to 32.1 µg/mL) | > 100 µM
Cc1cc(-c2[nH]c(N)nc2-c2cc3c(cc2F)OCC(=O)N3)ccn1 [Example 54, 6-(2-Amino-5-(2-methylpyridin-4-yl)-1H-imidazol-4-yl)-7-fluoro-2H-benzo[b][1,4]oxazin-3(4H)-one] | 1 to 10 µM (≈ 0.339 to 3.39 µg/mL) | > 100 µM | 1 to 10 µM (≈ 0.339 to 3.39 µg/mL) | ≤ 1 µM | > 100 µM | > 100 µM | 10 to 100 µM (≈ 3.39 to 33.9 µg/mL) | > 100 µM
Cc1cc(-c2[nH]c(N)nc2-c2cc3c(cc2F)OCCO3)ccn1 [Example 59, 4-(7-Fluoro-2,3-dihydrobenzo[b][1,4]dioxin-6-yl)-5-(2-methylpyridin-4-yl)-1H-imidazol-2-amine] | ≤ 1 µM | > 100 µM | ≤ 1 µM | ≤ 1 µM | > 100 µM | > 100 µM | 10 to 100 µM (≈ 3.26 to 32.6 µg/mL) | > 100 µM
